PubChem BioAssay (NCI)
“And” between values parts separate entries of the source, which are not always exact repeats. Equal entries are not always repeated.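 Tested at 5 concentrations; 48 h exposure; 96-well plates; endpoints linearly interpolated, else capped at highest concentration. Here, GI50 denotes the concentration required for 50% inhibition of growth. Definition used: TGI = concentration required for complete inhibition of growth.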

Tests used:
Experiment in all cases: growth of human tumour cells (NCI), 48 h
A549 NSCLC = system: A549 NSCLC
LOX IMVI melanoma = system: LOX IMVI melanoma
M14 melanoma = system: M14 melanoma
MALME-3M melanoma = system: MALME-3M melanoma
MDA-MB-231 breast = system: MDA-MB-231 breast
SF-539 CNS = system: SF-539 CNS
SW-620 colon = system: SW-620 colon
U251 CNS = system: U251 CNS
HOP-92 NSCLC = system: HOP-92 NSCLC
UACC-62 melanoma = system: UACC-62 melanoma

Row | SMILES | GI50 (A549 NSCLC) [µM] | TGI (A549 NSCLC) | GI50 (LOX IMVI melanoma) [µM] | TGI (LOX IMVI melanoma) | GI50 (M14 melanoma) [µM] | TGI (M14 melanoma) | GI50 (MALME-3M melanoma) | TGI (MALME-3M melanoma) | GI50 (MDA-MB-231 breast) [µM] | TGI (MDA-MB-231 breast) | GI50 (SF-539 CNS) [µM] | TGI (SF-539 CNS) | GI50 (SW-620 colon) [µM] | TGI (SW-620 colon) | GI50 (U251 CNS) [µM] | TGI (U251 CNS) | TGI (HOP-92 NSCLC) | TGI (UACC-62 melanoma) [µM] | GI50 (HOP-92 NSCLC) [µM]
1 | O=c1[nH]c2ccccc2nc1-c1c[nH]c2ccccc12 | > 100 | > 100 µM | > 100 | > 100 µM | > 100 | > 100 µM | 39.8 µM | > 100 µM | 7.38 | > 100 µM | > 100 | > 100 µM | > 100 | > 100 µM | > 100 | > 100 µM |  |  | 
2 | Brc1cccc(C2SCc3nc4ccccc4n32)c1 (configuration not stated) |  | > 100 µM |  | 28.6 µM |  | 53.1 µM |  | 77.5 µM |  |  |  | 40.9 µM |  | > 100 µM |  | 36.3 µM | 35.6 µM | 31 | 
3 | C=C1COC(/C=C(\C)CC/C=C(\C)CCl)C1 (configuration not stated) |  | > 100 µM |  | > 100 µM |  | > 100 µM |  |  |  |  |  | > 100 µM |  | > 100 µM |  | > 100 µM | > 100 µM | > 100 | 
4 | N#CC(C(=O)CCC(=O)Nc1cccc(Cl)c1)c1ccccc1 (configuration not stated) |  | > 100 µM |  | > 100 µM |  | > 100 µM |  | > 100 µM |  |  |  | > 100 µM |  |  |  | > 100 µM | > 100 µM | > 100 | 
5 | COc1ccc(C(OCC2OC(n3ccc(NC(=O)c4ccccc4)nc3=O)C(O)C2O)(c2ccccc2)c2ccccc2)cc1 (configuration not stated) |  | 14.9 µM |  |  |  | 3.62 µM |  | 3.73 µM |  | 4.05 µM |  | 3.94 µM |  | 5.8 µM |  | 3.48 µM |  | 21 | 
6 | CCOC(=O)C(=O)Nc1c(CC)cccc1C(C)C |  | > 100 µM |  | > 100 µM |  | > 100 µM |  | > 100 µM |  |  |  | > 100 µM |  | > 100 µM |  | > 100 µM | > 100 µM | > 100 | 
7 | C[Si](C)(C)OC1(C#N)C2C3CC4C2C(=O)C2C4C3C21 (configuration not stated) |  | > 100 µM |  |  |  | > 100 µM |  | > 100 µM |  |  |  | > 100 µM |  | > 100 µM |  | > 100 µM |  | > 100 | 
8 | CS(=O)(=O)c1ccc(C(=O)Nc2ccc(Cl)c(-c3ccccn3)c2)c(Cl)c1 |  | > 100 µM and 21.2 µM |  | > 100 µM and 10.1 µM |  | > 100 µM and 11.1 µM | 41.9 µM and 5.24 µM | > 100 µM and 31.6 µM |  | > 96.2 µM and 15.7 µM |  | > 100 µM and 13.7 µM |  | > 100 µM and 13.2 µM |  | > 100 µM and 15.8 µM | > 100 µM and 10.7 µM |  | 
9 | Nn1c(-c2ccccc2Cl)nc2ccccc2c1=O |  | > 100 µM |  |  |  | > 100 µM |  | > 100 µM |  |  |  | > 100 µM |  | > 100 µM |  | > 100 µM | > 100 µM | > 100 | 
10 | O=C(/C(=C/c1ccc([N+](=O)[O-])cc1)c1ccccc1)c1ccccc1 | 3.8 | > 100 µM |  |  | 3.08 | > 100 µM |  |  | 3.16 | > 100 µM |  |  |  |  |  |  | 6.98 µM |  | 2.22
11 | COC1CC(OS(=O)(=O)c2ccc(C)cc2)C(OC(=O)c2ccccc2)C(C)O1 (configuration not stated) | > 100 | > 100 µM | > 100 | > 100 µM | > 100 | > 100 µM | > 100 µM | > 100 µM |  |  | > 100 | > 100 µM | > 100 | > 100 µM |  | > 10 µM | > 100 µM | > 100 | > 10
